Measured values taken from patent publication US10556866B2, “ROR gamma (RORγ) modulators” (LEAD PHARMA HOLDING B.V., priority 2015, dated 2020).

What follows are compounds tested against T1, RORγ (Homo sapiens, UniProt P51449) (assay: RORγ GAL4 reporter gene assay (luciferase readout)). Conditions: inhibition of RORγ (GAL4-RORγ-LBD) in 293FT cells, luciferase signal; read-out: mean pIC50 (converted).
T1 construct: expressed in transfected cells; host or cells: 293FT cells (Invitrogen), expression vector pFN26A (Promega)
T1 sequence (P51449 269-508 limits assumed): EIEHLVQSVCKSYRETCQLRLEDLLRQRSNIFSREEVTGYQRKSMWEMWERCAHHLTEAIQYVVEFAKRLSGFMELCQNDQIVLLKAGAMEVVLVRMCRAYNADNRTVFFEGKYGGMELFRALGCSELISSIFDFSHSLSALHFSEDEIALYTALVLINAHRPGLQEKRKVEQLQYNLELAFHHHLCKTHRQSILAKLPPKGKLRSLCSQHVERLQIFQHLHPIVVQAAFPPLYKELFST
Format: cell-based
Protocol: Example inhibitors 1-38 were tested for their ability to inhibit RORγ activity in a RORγ GAL4 reporter gene assay. The assay procedure and results are described below.
A GAL4 one-hybrid reporter system employing luciferase readout was established to determine inhibition of RORγ in 293FT cells. The RORγ ligand-binding domain (LBD) was fused to the yeast GAL4 DNA binding domain (DBD) and placed under the control of the human cytomegalovirus (CMV) immediate early promoter, using expression vector pFN26A (Promega) and standard recombinant DNA cloning methods. To serve as a control in the assay, a similar vector was generated in which the GAL4-DBD was fused to Herpes simplex virus protein 16 (VP16), a constitutive transcriptional activator.
To monitor the inhibitory effect of compounds on RORγ, a transcriptional reporter construct was used. The pGL4.35 vector (Promega) contains nine copies of the GAL4 Upstream Activator Sequence (UAS). This sequence drives the transcription of the luciferase reporter gene luc2P in response to binding of a fusion protein containing the GAL4 DNA binding domain, as for example expressed by the GAL4-RORγ-LBD and GAL4-VP16 expression vectors described above. To allow a GAL4 fusion protein to drive the expression of the luciferase reporter, the pGL4.35 expression vector and the appropriate GAL4 fusion protein expression vector were bulk transfected in the 293FT cells using standard transfection techniques.
The day after transfection, cells were plated into 96 well plates, test compound was added and the plates were incubated overnight. Subsequently, the firefly luciferase activity was quantified using luciferase detection reagent and luminescence readout.
293FT cells (Invitrogen) were transfected with a GAL4 fusion protein expression vector (as described above) and the transcriptional reporter construct (pGL4.35, Promega). 60 μL of TransIT-293 transfection reagent (Mirus Bio) was added drop wise to 1500 μl Opti-MEM I Reduced Serum Medium (Invitrogen) and incubated at RT (RT) for 5 to 20 minutes. 1500 μL of this reagent mixture was added to 5 μg of GAL4 fusion protein expression vector and 5 μg of the transcriptional reporter construct, and incubated at RT for 20 minutes.
To harvest 293FT cells from a T75 flask, first the culture medium was taken off the cells. Subsequently, the cells were washed with Phosphate Buffered Saline (PBS) (Lonza), after which the PBS was removed. To dissociate the cells, 1 ml of TrypLE Express (Invitrogen) was added to the flask, followed by incubation at RT until the cells visually started to detach. Cells were collected in 5 mL of assay medium (DMEM culture medium (Lonza), 10% dialyzed FBS (Invitrogen) and Pen/Strep (Lonza)) to achieve a single cell suspension. 10×10^6 cells were spun down and re-suspended in 10 mL of assay medium. Subsequently, the cell suspension was added to the transfection mix tube, and then transferred as a whole to a T75 flask (Greiner), followed by overnight (16-24 hours) incubation at 37° C. and 5% CO2.
For compound screening, the cells were harvested (as described above) and counted. 13×10^6 cells were spun down, the supernatant was aspirated and the cells were re-suspended in 17.3 mL of assay medium obtaining a cell suspension of 0.75×10^6 cells/mL. 80 μL of cell suspension (60,000 cells) was plated per well into a white, flat bottom, tissue culture treated, 96 well screening plates (Greiner).
Test compounds were diluted, starting from a 10 mM dimethylsulfoxide (DMSO) stock solution, to serial dilutions in DMSO at 500× the final test concentration. Subsequently, these solutions were diluted to 5× the final test concentration in two 10-fold-dilution steps in assay medium. The final DMSO concentration of the 5× test compound solution was 1%. 20 μL of the 5× test compound solution was added to each test well of the 96 well plate previously plated with 80 μl cell suspension, resulting in the final test concentration with 0.2% DMSO. […]

Row | Structure (SMILES) | IC50
1 | O=C(NCc1ccc(S(=O)(=O)CC2CC2)cc1)c1ccc(C(O)(Cc2ccccc2)C(F)(F)F)cc1 (centres unmarked) [Example 14, 4-(1-benzyl-2,2,2-trifluoro-1-hydroxy-ethyl)-N-[[4-(cyclopropylmethylsulfonyl)phenyl]methyl]benzamide] | ≤ 0.1 µM
2 | Cc1cc(C(=O)NCc2ccc(S(=O)(=O)CC3CC3)cc2)ccc1C(O)(C(F)(F)F)C(F)(F)F [Example 15, N-[[4-(cyclopropylmethylsulfonyl)phenyl]methyl]-3-methyl-4-[2,2,2-trifluoro-1-hydroxy-1-(trifluoromethyl)ethyl]benzamide] | ≤ 0.1 µM
3 | CCC(O)(c1ccc(C(=O)NCc2ccc(S(=O)(=O)CC)cc2)cc1)C(F)(F)F (centres unmarked) [Example 17, N-[(4-ethylsulfonylphenyl)methyl]-4-[1-hydroxy-1-(trifluoromethyl)propyl]benzamide] | < 10 µM
4 | CCS(=O)(=O)c1ccc(CNC(=O)c2ccc(C(O)(CC(C)(C)C)C(F)(F)F)cc2)cc1 (centres unmarked) [Example 18, N-[(4-ethylsulfonylphenyl)methyl]-4-[1-hydroxy-3,3-dimethyl-1-(trifluoromethyl)butyl]benzamide] | ≤ 1 µM
5 | CCS(=O)(=O)c1ccc(CNC(=O)c2ccc(C(O)(C(F)(F)F)C(F)(F)F)cc2)cc1 [Example 19, N-[(4-ethylsulfonylphenyl)methyl]-4-[2,2,2-trifluoro-1-hydroxy-1-(trifluoromethyl)ethyl]benzamide] | < 10 µM
6 | CCCCC(O)(c1ccc(C(=O)NCc2ccc(S(=O)(=O)NC3CC3)cc2)cc1)C(F)(F)F (centres unmarked) [Example 20, N-[[4-(cyclopropylsulfamoyl)phenyl]methyl]-4-[1-hydroxy-1-(trifluoromethyl)pentyl]benzamide] | ≤ 1 µM
7 | O=C(NCc1ccc(S(=O)(=O)NC2CC2)cc1)c1ccc(C(O)(C(F)(F)F)C(F)(F)F)cc1 [Example 21, N-[[4-(cyclopropylsulfamoyl)phenyl]methyl]-4-[2,2,2-trifluoro-1-hydroxy-1-(trifluoromethyl)ethyl]benzamide] | ≤ 1 µM
8 | COC(c1ccc(C(=O)NCc2ccc(S(=O)(=O)CC3CC3)cc2)cc1)(C(F)(F)F)C(F)(F)F [Example 22, N-[[4-(cyclopropylmethylsulfonyl)phenyl]methyl]-4-[2,2,2-trifluoro-1-methoxy-1-(trifluoromethyl)ethyl]benzamide] | ≤ 0.1 µM
9 | CCOC(c1ccc(C(=O)NCc2ccc(S(=O)(=O)CC3CC3)cc2)cc1)(C(F)(F)F)C(F)(F)F [Example 23, N-[[4-(cyclopropylmethylsulfonyl)phenyl]methyl]-4-[1-ethoxy-2,2,2-trifluoro-1-(trifluoromethyl)ethyl]benzamide] | ≤ 0.1 µM
10 | CCCOC(c1ccc(C(=O)NCc2ccc(S(=O)(=O)CC3CC3)cc2)cc1)(C(F)(F)F)C(F)(F)F [Example 24, N-[[4-(cyclopropylmethylsulfonyl)phenyl]methyl]-4-[2,2,2-trifluoro-1-propoxy-1-(trifluoromethyl)ethyl]benzamide] | ≤ 0.1 µM
11 | CCCCOC(c1ccc(C(=O)NCc2ccc(S(=O)(=O)CC3CC3)cc2)cc1)(C(F)(F)F)C(F)(F)F [Example 25, 4-[1-butoxy-2,2,2-trifluoro-1-(trifluoromethyl)ethyl]-N-[[4-(cyclopropylmethylsulfonyl)phenyl]methyl]benzamide] | ≤ 0.1 µM
12 | CC(C)OC(c1ccc(C(=O)NCc2ccc(S(=O)(=O)CC3CC3)cc2)cc1)(C(F)(F)F)C(F)(F)F [Example 26, N-[[4-(cyclopropylmethylsulfonyl)phenyl]methyl]-4-[2,2,2-trifluoro-1-isopropoxy-1-(trifluoromethyl)ethyl]benzamide] | ≤ 0.1 µM
13 | O=C(NCc1ccc(S(=O)(=O)CC2CC2)cc1)c1ccc(C(OCc2ccccc2)(C(F)(F)F)C(F)(F)F)cc1 [Example 27, 4-[1-benzyloxy-2,2,2-trifluoro-1-(trifluoromethyl)ethyl]-N-[[4-(cyclopropylmethylsulfonyl)phenyl]methyl]benzamide] | ≤ 1 µM
14 | COC(c1ccc(C(=O)NCc2ccc(S(=O)(=O)CC3CC3)cc2C)cc1)(C(F)(F)F)C(F)(F)F [Example 28, N-[[4-(cyclopropylmethylsulfonyl)-2-methyl-phenyl]methyl]-4-[2,2,2-trifluoro-1-methoxy-1-(trifluoromethyl)ethyl]benzamide] | ≤ 0.1 µM
15 | CCOC(c1ccc(C(=O)NCc2ccc(S(=O)(=O)CC3CC3)cc2C)cc1)(C(F)(F)F)C(F)(F)F [Example 29, N-[[4-(cyclopropylmethylsulfonyl)-2-methyl-phenyl]methyl]-4-[1-ethoxy-2,2,2-trifluoro-1-(trifluoromethyl)ethyl]benzamide] | ≤ 0.1 µM
16 | COC(c1ccc(C(=O)NCc2ccc(S(=O)(=O)NC3CC3)cc2)cc1)(C(F)(F)F)C(F)(F)F [Example 30, N-[[4-(cyclopropylsulfamoyl)phenyl]methyl]-4-[2,2,2-trifluoro-1-methoxy-1-(trifluoromethyl)ethyl]benzamide] | ≤ 1 µM
17 | CCOC(c1ccc(C(=O)NCc2ccc(S(=O)(=O)NC3CC3)cc2)cc1)(C(F)(F)F)C(F)(F)F [Example 31, N-[[4-(cyclopropylsulfamoyl)phenyl]methyl]-4-[1-ethoxy-2,2,2-trifluoro-1-(trifluoromethyl)ethyl]benzamide] | ≤ 1 µM
18 | CCCOC(c1ccc(C(=O)NCc2ccc(S(=O)(=O)NC3CC3)cc2)cc1)(C(F)(F)F)C(F)(F)F [Example 32, N-[[4-(cyclopropylsulfamoyl)phenyl]methyl]-4-[2,2,2-trifluoro-1-propoxy-1-(trifluoromethyl)ethyl]benzamide] | ≤ 1 µM
19 | COC(CC(C)(C)C)(c1ccc(C(=O)NCc2ccc(S(=O)(=O)CC3CC3)cc2)cc1)C(F)(F)F (centres unmarked) [Example 33, N-[[4-(cyclopropylmethylsulfonyl)phenyl]methyl]-4-[1-methoxy-3,3-dimethyl-1-(trifluoromethyl)butyl]benzamide] | ≤ 0.1 µM
20 | C[C@@H](NC(=O)c1ccc(C(O)(C(F)(F)F)C(F)(F)F)cc1)c1ccc(S(=O)(=O)CC2CC2)cc1 [Example 34, N-[(1R)-1-[4-(cyclopropylmethylsulfonyl)phenyl]ethyl]-4-[2,2,2-trifluoro-1-hydroxy-1-(trifluoromethyl)ethyl]benzamide] | < 10 µM
21 | C[C@H](NC(=O)c1ccc(C(O)(C(F)(F)F)C(F)(F)F)cc1)c1ccc(S(=O)(=O)CC2CC2)cc1 [Example 35, N-[(1S)-1-[4-(cyclopropylmethylsulfonyl)phenyl]ethyl]-4-[2,2,2-trifluoro-1-hydroxy-1-(trifluoromethyl)ethyl]benzamide] | ≤ 1 µM
22 | Cc1cc(C(O)(c2ccc(C(=O)NCc3ccc(S(=O)(=O)CC4CC4)cc3)cc2)C(C)C)no1 (centres unmarked) [Example 36, N-[[4-(cyclopropylmethylsulfonyl)phenyl]methyl]-4-[1-hydroxy-2-methyl-1-(5-methylisoxazol-3-yl)propyl]benzamide] | ≤ 0.1 µM
23 | Cc1cc(C(O)(c2ccc(C(=O)NCc3ccc(S(=O)(=O)CC4CC4)cc3)cc2)C2CC2)no1 (centres unmarked) [Example 37, 4-[cyclopropyl-hydroxy-(5-methylisoxazol-3-yl)methyl]-N-[[4-(cyclopropylmethylsulfonyl)phenyl]methyl]benzamide] | ≤ 1 µM
